The source of these data is patent US20080292688A1, “Liposome and preparation method of the same” (Industrial Technology Research Institute, priority 2003, published 2008).

The series in a line: physchem. The following applies: Solubility of RA.

Converted amounts (≈) assume the structure as drawn. Some results are limits rather than exact numbers.

Protocol: Therefore, TPGS is added with ethanol to increase the solubility of the hydrophobic drug in according to the present invention.

In the case of `CC1=C(/C=C/C(C)=C/C=C/C(C)=C/C(=O)O)C(C)(C)CCC1` [RA, All-Trans Retinoic Acid], the solubility was less than 0.1 µg/mL (aqueous buffer) and 4 µg/mL (≈ 13.3 µM) (saline or isotonic).
